Test results reported in patent US20250270180A1, “MEK INHIBITORS AND THERAPEUTIC USES THEREOF” (Immuneering Corporation, priority 2020, published 2025).

Assays:
[1] = Microsome stability, beagle dog; type: in vitro ADME; conditions: microsomes, 2 μM
CYP450 2D6 = CYP450 2D6 (Homo sapiens, UniProt P10635); experiment: CYP450 panel, 2D6; conditions: 10 μM; substrate dextromethophan
[2] = Absorption & efflux: Caco-2 permeability; conditions: human
CYP450 2C19 = CYP450 2C19 (Homo sapiens, UniProt P33261); experiment: CYP450 panel, 2C19; conditions: 10 μM; substrate mephenytoin
[3] = Plasma stability, CD-1 mouse; type: in vitro ADME; conditions: 2 μM
CYP450 2B6 = molecular target: T1, CYP450 2B6 (Homo sapiens, UniProt P20813); experiment: CYP450 panel, 2B6; conditions: 10 μM; substrate bupropion
T1 sequence (P20813 1-491): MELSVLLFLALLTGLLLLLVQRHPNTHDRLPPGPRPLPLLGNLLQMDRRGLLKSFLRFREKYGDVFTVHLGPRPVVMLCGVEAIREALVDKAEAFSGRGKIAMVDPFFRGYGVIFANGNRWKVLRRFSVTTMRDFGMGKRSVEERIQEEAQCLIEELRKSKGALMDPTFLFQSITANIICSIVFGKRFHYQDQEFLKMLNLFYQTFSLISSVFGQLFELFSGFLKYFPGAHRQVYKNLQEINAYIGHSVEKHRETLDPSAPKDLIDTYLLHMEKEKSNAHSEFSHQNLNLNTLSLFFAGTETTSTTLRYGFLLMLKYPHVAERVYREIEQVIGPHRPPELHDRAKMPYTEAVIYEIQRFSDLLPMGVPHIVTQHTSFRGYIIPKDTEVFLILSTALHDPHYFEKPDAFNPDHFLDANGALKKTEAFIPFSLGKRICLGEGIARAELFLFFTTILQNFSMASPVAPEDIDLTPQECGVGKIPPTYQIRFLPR

CYP450 2C8 = molecular target: T2, CYP450 2C8 (Homo sapiens, UniProt P10632); experiment: CYP450 panel, 2C8; conditions: 10 μM; substrate amodiaquine
T2 sequence (P10632 1-490): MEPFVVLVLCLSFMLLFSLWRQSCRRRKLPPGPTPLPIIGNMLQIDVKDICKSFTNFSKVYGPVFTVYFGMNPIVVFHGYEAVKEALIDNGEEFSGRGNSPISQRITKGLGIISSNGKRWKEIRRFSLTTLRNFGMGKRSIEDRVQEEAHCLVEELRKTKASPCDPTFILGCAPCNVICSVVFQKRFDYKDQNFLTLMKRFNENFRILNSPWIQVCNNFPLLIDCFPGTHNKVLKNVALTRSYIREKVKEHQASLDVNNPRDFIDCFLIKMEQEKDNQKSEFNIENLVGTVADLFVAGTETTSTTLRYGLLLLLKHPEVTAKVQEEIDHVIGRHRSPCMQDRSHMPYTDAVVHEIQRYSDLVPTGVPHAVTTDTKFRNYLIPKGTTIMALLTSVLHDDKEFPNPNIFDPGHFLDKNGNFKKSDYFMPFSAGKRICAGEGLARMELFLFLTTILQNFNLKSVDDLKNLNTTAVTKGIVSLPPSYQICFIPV

CYP450 2C9 = CYP450 2C9 (Homo sapiens, UniProt P11712); experiment: CYP450 panel, 2C9; conditions: 10 μM; substrate Diclofenac
[4] = Plasma stability, beagle dog; type: in vitro ADME; conditions: 2 μM
Plasma stability, human = type: in vitro ADME; conditions: 2 μM
CYP450 3A4 = CYP450 3A4 (Homo sapiens, UniProt P08684); experiment: CYP450 panel, 3A4; conditions: 10 μM; for 3A4*: substrate midazolam; for 3A4^: substrate testosterone
[5] = Microsome stability, human; type: in vitro ADME; conditions: microsomes, 2 μM
hERG Channel = hERG Channel (Homo sapiens, UniProt Q12809); experiment: cell-based
CYP450 1A2 = molecular target: T3, CYP450 1A2 (Homo sapiens, UniProt P05177); experiment: CYP450 panel, 1A2; type: in vitro ADME; conditions: 10 μM; substrate phenacetin
T3 sequence (P05177 1-516): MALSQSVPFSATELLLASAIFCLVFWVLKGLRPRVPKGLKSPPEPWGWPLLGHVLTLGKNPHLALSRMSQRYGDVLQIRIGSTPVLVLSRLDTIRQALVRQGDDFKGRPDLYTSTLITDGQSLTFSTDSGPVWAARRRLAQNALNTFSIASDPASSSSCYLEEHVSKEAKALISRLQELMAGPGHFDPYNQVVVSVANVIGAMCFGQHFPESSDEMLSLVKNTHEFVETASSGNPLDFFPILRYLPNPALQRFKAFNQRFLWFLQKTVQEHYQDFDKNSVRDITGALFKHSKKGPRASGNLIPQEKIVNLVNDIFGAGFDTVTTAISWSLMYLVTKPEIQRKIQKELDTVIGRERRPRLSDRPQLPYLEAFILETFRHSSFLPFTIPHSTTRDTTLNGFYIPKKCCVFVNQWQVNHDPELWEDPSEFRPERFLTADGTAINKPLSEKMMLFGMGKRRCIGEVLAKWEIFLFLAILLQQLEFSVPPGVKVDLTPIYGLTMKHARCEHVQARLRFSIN

[6] = Microsome stability, CD-1 mouse; conditions: microsomes, 2 μM
A549 pERK = experiment: A549-pERK, 2 h (quantitative Western, Jess); type: cell-based; conditions: Homo sapiens, A549, 2 h, phospho:total ratio normalized to DMSO control; for activity at 0.01 µM: 10 nM
Description: (§1) A549 or […] cells were treated in duplicate for two hours with compounds at varying concentrations. After two hours, the cells were lysed, snap frozen, and stored at −80° C. After storage, the lysate was quantified with the Bradford assay. Before the lysates were prepared to run on the Jess, the lysates were diluted to 1 mg/mL for pERK analysis and 1.5 mg/mL pMEK analysis using quantitative Western blotting. ERK and MEK phosphorylation levels were estimated by taking the ratio of phospho-protein to total protein and normalizing to the DMSO control. The results of this study are described in Tables 14-16.

[7] = tested on: A549 CRAF BP (MEK phosphorylation); experiment: A549-CRAF BP 100 nM, 2 h (pMEK); type: cell-based; conditions: Homo sapiens, A549, 2 h, phospho:total ratio normalized to DMSO control
Description: as §1

[8] = Caco-2, A-B Permeability Ranking, 10 μM, 2 hrs
[9] = Caco-2, Mean Papp A-B (10^−6 cm/s), 10 μM, 2 hrs

Sequence of CYP450 3A4 (P08684 whole entry): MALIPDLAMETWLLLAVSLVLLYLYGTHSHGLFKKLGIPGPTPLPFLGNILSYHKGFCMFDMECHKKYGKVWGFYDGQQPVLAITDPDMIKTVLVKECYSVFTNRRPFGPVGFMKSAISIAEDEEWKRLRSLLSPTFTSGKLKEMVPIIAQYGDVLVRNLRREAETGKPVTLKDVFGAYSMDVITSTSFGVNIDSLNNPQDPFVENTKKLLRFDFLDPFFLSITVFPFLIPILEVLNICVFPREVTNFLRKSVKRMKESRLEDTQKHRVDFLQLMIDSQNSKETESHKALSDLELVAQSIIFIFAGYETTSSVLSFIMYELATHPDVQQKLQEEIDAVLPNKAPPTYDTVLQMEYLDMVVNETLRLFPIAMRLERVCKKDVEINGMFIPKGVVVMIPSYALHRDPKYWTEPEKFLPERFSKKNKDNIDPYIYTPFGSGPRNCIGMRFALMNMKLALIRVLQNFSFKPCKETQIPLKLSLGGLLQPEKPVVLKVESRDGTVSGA
Sequence of hERG Channel (Q12809 whole entry): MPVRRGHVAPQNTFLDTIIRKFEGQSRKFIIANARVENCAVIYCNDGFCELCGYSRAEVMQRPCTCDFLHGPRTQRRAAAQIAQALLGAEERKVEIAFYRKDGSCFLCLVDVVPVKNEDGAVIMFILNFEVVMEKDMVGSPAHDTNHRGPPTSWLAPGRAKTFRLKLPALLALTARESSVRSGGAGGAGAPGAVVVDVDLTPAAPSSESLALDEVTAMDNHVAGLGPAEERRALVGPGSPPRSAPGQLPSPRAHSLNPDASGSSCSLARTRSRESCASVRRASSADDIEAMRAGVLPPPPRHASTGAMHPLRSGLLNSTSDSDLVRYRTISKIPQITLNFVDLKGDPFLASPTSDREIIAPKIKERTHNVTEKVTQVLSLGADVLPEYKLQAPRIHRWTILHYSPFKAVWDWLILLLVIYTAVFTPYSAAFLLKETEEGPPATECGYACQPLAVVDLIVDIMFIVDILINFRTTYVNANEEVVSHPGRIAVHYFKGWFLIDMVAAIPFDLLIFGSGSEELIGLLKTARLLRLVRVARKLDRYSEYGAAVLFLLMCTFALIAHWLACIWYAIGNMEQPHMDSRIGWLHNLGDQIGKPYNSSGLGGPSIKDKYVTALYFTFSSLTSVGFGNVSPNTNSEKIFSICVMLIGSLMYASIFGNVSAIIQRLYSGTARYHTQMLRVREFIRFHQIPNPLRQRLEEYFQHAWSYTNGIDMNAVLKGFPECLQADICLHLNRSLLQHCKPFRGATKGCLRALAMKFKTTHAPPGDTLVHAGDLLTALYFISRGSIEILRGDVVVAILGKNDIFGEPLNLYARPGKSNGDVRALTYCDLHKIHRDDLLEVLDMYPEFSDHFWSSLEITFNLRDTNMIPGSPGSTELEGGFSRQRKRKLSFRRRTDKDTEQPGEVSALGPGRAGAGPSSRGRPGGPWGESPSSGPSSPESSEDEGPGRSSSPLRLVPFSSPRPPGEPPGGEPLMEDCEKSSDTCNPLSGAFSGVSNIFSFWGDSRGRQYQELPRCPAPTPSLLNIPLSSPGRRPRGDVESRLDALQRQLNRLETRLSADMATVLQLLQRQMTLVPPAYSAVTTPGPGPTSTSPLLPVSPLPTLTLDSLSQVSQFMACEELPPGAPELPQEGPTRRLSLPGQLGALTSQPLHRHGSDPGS
Sequence of CYP450 2D6 (P10635 whole entry): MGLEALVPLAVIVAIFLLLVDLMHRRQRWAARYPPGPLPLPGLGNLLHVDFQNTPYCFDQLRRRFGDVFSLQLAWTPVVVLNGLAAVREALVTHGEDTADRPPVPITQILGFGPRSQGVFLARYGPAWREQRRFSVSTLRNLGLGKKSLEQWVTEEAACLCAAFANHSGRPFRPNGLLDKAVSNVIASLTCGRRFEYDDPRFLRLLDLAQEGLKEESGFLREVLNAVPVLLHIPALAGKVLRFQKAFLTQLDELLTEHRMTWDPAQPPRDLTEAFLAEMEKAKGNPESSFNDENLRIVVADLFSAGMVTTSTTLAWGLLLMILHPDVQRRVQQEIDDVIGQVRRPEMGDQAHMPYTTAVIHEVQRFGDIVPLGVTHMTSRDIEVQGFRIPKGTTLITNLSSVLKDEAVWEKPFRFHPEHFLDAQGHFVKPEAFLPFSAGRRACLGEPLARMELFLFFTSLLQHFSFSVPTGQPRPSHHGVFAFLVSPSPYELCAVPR
Sequence of CYP450 2C19 (P33261 whole entry): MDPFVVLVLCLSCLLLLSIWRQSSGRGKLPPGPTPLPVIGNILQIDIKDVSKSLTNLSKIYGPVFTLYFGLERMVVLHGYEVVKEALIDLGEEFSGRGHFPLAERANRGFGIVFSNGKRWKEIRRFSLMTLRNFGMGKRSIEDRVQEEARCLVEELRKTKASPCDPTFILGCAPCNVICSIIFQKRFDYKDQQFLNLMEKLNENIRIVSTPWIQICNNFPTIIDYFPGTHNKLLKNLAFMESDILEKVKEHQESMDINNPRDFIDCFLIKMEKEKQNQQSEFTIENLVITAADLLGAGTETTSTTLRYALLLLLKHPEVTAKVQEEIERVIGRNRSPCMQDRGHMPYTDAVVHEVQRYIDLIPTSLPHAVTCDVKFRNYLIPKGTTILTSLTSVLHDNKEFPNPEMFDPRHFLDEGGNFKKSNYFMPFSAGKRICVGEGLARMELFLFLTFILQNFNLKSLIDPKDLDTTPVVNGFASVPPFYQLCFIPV
Sequence of CYP450 2C9 (P11712 whole entry): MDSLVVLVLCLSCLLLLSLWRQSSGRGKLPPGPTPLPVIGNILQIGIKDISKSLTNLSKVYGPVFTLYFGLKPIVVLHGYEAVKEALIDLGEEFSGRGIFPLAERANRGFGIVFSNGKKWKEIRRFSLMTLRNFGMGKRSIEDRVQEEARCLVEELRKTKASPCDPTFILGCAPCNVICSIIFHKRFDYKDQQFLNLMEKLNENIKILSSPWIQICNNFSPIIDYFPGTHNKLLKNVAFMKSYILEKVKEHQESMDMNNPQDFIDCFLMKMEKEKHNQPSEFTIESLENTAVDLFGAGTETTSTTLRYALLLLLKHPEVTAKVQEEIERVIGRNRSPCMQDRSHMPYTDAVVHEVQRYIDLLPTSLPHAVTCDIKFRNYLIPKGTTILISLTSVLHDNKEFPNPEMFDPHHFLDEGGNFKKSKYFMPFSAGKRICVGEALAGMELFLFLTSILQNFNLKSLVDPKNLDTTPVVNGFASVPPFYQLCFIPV

| SMILES | Beagle Dog (% Reamining @1 hour) [1] | 2D6* (CYP450 2D6) | Papp B→A at 2 h, 10 μM [2] | efflux ratio at 2 h, 10 μM [2] | Papp A→B at 2 h, 10 μM [2, 8] | Papp A→B at 2 h, 10 μM [2, 9] | 2C19* (CYP450 2C19) | CD-1 Mouse (% Reamining @2 hour) [3] | 2B6* (CYP450 2B6) | 2C8* (CYP450 2C8) | 2C9* (CYP450 2C9) | Beagle Dog (% Reamining @2 hour) [4] | Human (% Reamining @2 hour) (Plasma stability, human) | 3A4* (CYP450 3A4) | 3A4^ (CYP450 3A4) | Human (% Reamining @1 hour) [5] | IC50 (hERG Channel) | 1A2* (CYP450 1A2) | CD-1 Mouse (% Reamining @1 hour) [6] | also measured |
| --- | --- | --- | --- | --- | --- | --- | --- | --- | --- | --- | --- | --- | --- | --- | --- | --- | --- | --- | --- | --- |
| CNS(=O)(=O)Nc1cccc(Cc2c(CNC3CC3)c3ccc(OC(=O)N(C)C)cc3oc2=O)c1F [Compound 11] | 4.9% | 9.8 | 19.7 ×10⁻⁶ cm/s | 2.15 | > 1 ×10⁻⁶ cm/s | 9.18 ×10⁻⁶ cm/s | 9.7 | 81.4% | 12.1 | 0.8 | 12.9 | 97.8% | 93.7% | 36.1 | 44.8 | 28.9% | 1.1 µM | 6.9 | 7.0% |  |
| CNS(=O)(=O)Nc1cccc(Cc2c(CNc3ccn[nH]3)c3ccc(OC(=O)N(C)C)cc3oc2=O)c1F [Compound 12] | 42.8% | 4.5 | 17.9 ×10⁻⁶ cm/s | 16.9 | > 1 ×10⁻⁶ cm/s | 1.06 ×10⁻⁶ cm/s | 16.0 | 86.6% | 14.9 | 2.4 | 8.4 | 102.6% | 100.5% | 29.2 | 31.9 | 32.9% | > 30 µM | 13.0 | 28.2% |  |
| CNS(=O)(=O)Nc1cccc(Cc2c(CN3CCN(C)CC3)c3ccc(OC(=O)N(C)C)cc3oc2=O)c1F [Compound 15] | 46.0% | 0.5 | 34.9 ×10⁻⁶ cm/s | 29.3 | > 1 ×10⁻⁶ cm/s | 1.19 ×10⁻⁶ cm/s | 4.3 | 87.1% | 16.3 | −16.9 | 3.0 | 89.1% | 98.1% | 21.3 | 20.5 | 75.8% | 6.5 µM | 7.8 | 77.6% | activity at 0.01 µM (A549 pERK): 73.8% |
| CNS(=O)(=O)Nc1cccc(Cc2c(CN3CCN(Cc4ccccc4)CC3)c3ccc(OC(=O)N(C)C)cc3oc2=O)c1F [Compound 16] | 0.4% | 55.0 | 5.61 ×10⁻⁶ cm/s | 0.743 | > 1 ×10⁻⁶ cm/s | 7.55 ×10⁻⁶ cm/s | 88.4 | 92.7% | 11.6 | 45.5 | 42.4 | 101.2% | 99.0% | 75.1 | 92.1 | 1.4% | 0.1 µM | 6.9 | 0.6% | activity at 0.01 µM (A549 pERK): 91.6% |
| C#CCNCCc1c(Cc2cccc(NS(=O)(=O)NC)c2F)c(=O)oc2cc(OC(=O)N(C)C)ccc12 [Compound 183] |  |  |  |  |  |  |  |  |  |  |  |  |  |  |  |  |  |  |  | activity at 0.1 µM [7]: 65.9%; activity at 0.01 µM (A549 pERK): 32.4%; activity at 10 µM (A549 pERK; 10 uM): 0.82% |
| CC[C@H](C)C(=O)O[C@H]1C[C@@H](C)C=C2C=C[C@H](C)[C@H](CC[C@@H]3C[C@@H](O)CC(=O)O3)[C@H]21 [Lovastatin] |  |  |  |  |  |  |  | 0.6% |  |  |  | 94.1% | 81.8% |  |  |  |  |  |  |  |
| COc1ccc2[nH]c([S+]([O-])Cc3ncc(C)c(OC)c3C)nc2c1 (stereo not shown) [Omeprazole] |  |  |  |  |  |  | 61.6 |  |  |  |  |  |  |  |  |  |  |  |  |  |
| CC(C)[N+](C)(CCOC(=O)C1c2ccccc2Oc2ccccc21)C(C)C [Propantheline] |  |  |  |  |  |  |  | 27.1% |  |  |  | 58.4% | 5.7% |  |  |  |  |  |  |  |
| O=c1c(O)c(-c2ccc(O)c(O)c2)oc2cc(O)cc(O)c12 [Quercetin] |  |  |  |  |  |  |  |  |  | 93.1 |  |  |  |  |  |  |  |  |  |  |
| CNC(=C[N+](=O)[O-])NCCSCc1ccc(CN(C)C)o1 [Ranitidine] |  |  |  |  |  |  |  |  |  |  |  |  |  |  |  |  |  |  |  | Papp A→B at 2 h, 10 μM [2]: < 1 ×10⁻⁶ cm/s |
| Nc1ccc(S(=O)(=O)Nc2ccnn2-c2ccccc2)cc1 [Sulfaphenazole] |  |  |  |  |  |  |  |  |  |  | 101.2 |  |  |  |  |  |  |  |  |  |
